Like-named read-outs stand apart in the source and are kept apart here.
Tests used:
[1] = Mouse liver microsome stability assay; type: in vitro ADME
Experimental: Mouse Liver Microsome Stability Assay. A mixture of PBS (pH 7.4), NADPH regenerating system solution A (Corning Life Sciences), and NADPH regenerating system solution B (Corning Life Sciences) was incubated at 37° C. in a shaking incubator for 5 min. Next, compound was added in DMSO (final concentration 50 μM, 0.5% DMSO) before ice-cold mouse liver microsomes (Thermo Fisher, male CD-1 mice, pooled) were added (final protein concentration of 1 mg/mL). An aliquot was immediately removed, quenched with an equal volume of 100 μM internal standard and centrifuged at 13,000 rcf for 3 min. The reactions were incubated at 37° C. in a shaking incubator for 3 h. A second aliquot was removed and quenched. Samples were analyzed with the 5500 QTRAP LC/MS/MS system (Sciex, Framingham, MA) in Metabolomics Lab of Roy J. Carver Biotechnology Center, University of Illinois at Urbana-Champaign. Software Analyst 1.6.2 was used for data acquisition and analysis. The 1200 series HPLC system (Agilent Technologies, Santa Clara, CA) includes a degasser, an autosampler, and a binary pump. The LC separation was performed on an Agilent Sb-Aq column (4.6×50 mm, […]) with mobile phase A (0.1% formic acid in water) and mobile phase B (0.1% formic acid in acetonitrile). The flow rate was 0.3 mL/min. The linear gradient was as follows: 0-3 min, 100% A; 10-16 min, 5% A; 16.5-22 min, 100% A. The autosampler was set at 10° C. The injection volume was 1 μL. Mass spectra were acquired under both positive (ion spray voltage was +5500 V) and negative (ion spray voltage was −4500 V) electrospray ionization (ESI). The source temperature was 450° C. The curtain gas, ion source gas 1, and ion source gas 2 were 33, 65, and 60 psi, respectively. Multiple reaction monitoring (MRM) was used for quantitation.

[2] = test system: S. aureus resistant mutants with EF-G (fusA) mutations; assay: microbe, parasite or virus in culture; type: cell-based; settings: for MIC: Staphylococcus aureus
Experimental: (§1) Antimicrobial Susceptibility Tests. Susceptibility testing was performed in biological triplicate, using the micro-dilution broth method as outlined by the Clinical and Laboratory Standards Institute. Bacteria were cultured with cation-adjusted Muller-Hinton broth (Sigma-Aldrich, Cat #90922) in round-bottom 96-well plates (Corning, Cat #3788). Human serum (Ultrafiltrate, unspecified gender, 30K Dalton membrane filtered) was purchased from BioIVT (Hicksville, NY).
(§2) Selection of Resistant Mutants. Resistant mutants were selected via the large inoculum method. Briefly, S. aureus ATCC 29213 (1×10^9 CFU) were plated on 100 mm plates of LB agar containing 4, 2, 1, 0.5, and 0.25 μg/mL.
(§3) Sequencing of fusA. FusA was amplified by colony PCR. Colonies were picked and diluted in 100 μL sterile H2O. PCR reactions are setup by combining MiFi Mix (Bioline, London, UK), 20 μM primer mix [fusA-F2, fusA_seq1, Forward EF-G2, and Reverse EF-G](S. aureus ATCC 29213), template DNA, and H2O. Reactions were performed on C1000 Thermal Cycler (Bio-Rad, Hercules, CA) with the following conditions: 5 minutes denaturation at 95° C., followed by 30 cycles of 20 seconds at 95° C., 20 seconds at 50° C., and either 1 minute (fusA1) or 1.5 minutes (fusA2) at 72° C. A 10 μL portion of the PCR reaction mixture was analyzed by agarose gel to confirm the product. PCR reactions were purified using GeneJET PCR Purification Kit (Thermo Scientific). PCR amplicons were submitted to the Core DNA Sequencing Facility at the University of Illinois at Urbana-Champaign for Sanger sequencing with the following primers to sequence the fusA [fusA2, fusA_seq1, Forward EF-G2, Forward EF-G3, Forward EF-G4]

[3] = test system: FA-Resistant strains of S. aureus; assay: MIC against 11 FA-resistant strains generated at 4x-32x the MIC; type: cell-based
Experimental: as §1, §2, §3

S. aureus ATCC BAA-1721 = assay: MIC against strain possessing the fusC gene; type: cell-based; settings: Staphylococcus aureus, ATCCBAA1721
E. faecium ATCC 19434 = assay: MIC against sensitive E. faecium strain; type: cell-based; settings: Enterococcus faecium, ATCC19434; sensitive strain E. faecium ATCC 19434
[4] = test system: multidrug-resistant clinical isolates of E. faecium; assay: MIC against multidrug-resistant clinical isolates of E. faecium; type: cell-based; settings: for Cross-resistance with vancomycin: E. faecium clinical isolates; for MIC: Enterococcus faecium
[5] = Staphylococcus aureus, strain FA-4X-A, EF-G T385N
[6] = Staphylococcus aureus, strain FA-4X-B, EF-G T385N
[7] = Staphylococcus aureus, strain FA-8X-A, EF-G T385N
[8] = Staphylococcus aureus, strain FA-8X-B, EF-G R464L
[9] = Staphylococcus aureus, strain FA-16X-A, EF-G H457Y
[10] = Staphylococcus aureus, strain FA-32X-B, EF-G P406L
[11] = Staphylococcus aureus, strain FA-32X-D, EF-G T436I

CC(=O)O[C@H]1C[C@@]2(C)[C@@H](C[C@@H](O)[C@H]3[C@@]4(C)CC[C@@H](O)[C@@H](C)[C@@H]4CC[C@@]32C)/C1=C(\CCC=C(C)C)C(=O)O [FA, Fusidic acid]
16 µg/mL: MIC ([2]; read-out: MIC for FA, strain FA-32X-6, EF-G T436I) | MIC [3, 8]
2 µg/mL: MIC (E. faecium ATCC 19434) | MIC ([4]; E. faecium AR0574 (CDC), read-out: MIC) | MIC ([4]; E. faecium AR0575 (CDC), read-out: MIC) | MIC ([4]; E. faecium AR0578 (CDC), read-out: MIC)
32 µg/mL: MIC [3, 10] | MIC ([3]; strain FA-32×-B)
1 µg/mL: MIC ([4]; E. faecium AR0579 (CDC), read-out: MIC)
128 µg/mL: MIC ([2]; read-out: MIC for FA, strain FA-32X-1, EF-G H457Y) | MIC ([2]; read-out: MIC for FA, strain FA-32X-3, EF-G H457Y) | MIC ([2]; read-out: MIC for FA, strain FA-32X-7, EF-G H457Y) | MIC ([2]; read-out: MIC for FA, strain FA-32X-8, EF-G H457Y) | MIC ([2]; read-out: MIC for FA, strain FA-32X-10, EF-G H457Y) | MIC ([2]; read-out: MIC for FA, strain FA-32X-12, EF-G H457Y) | MIC ([2]; read-out: MIC for FA, strain FA-32X-13, EF-G H457Y) | MIC ([2]; read-out: MIC for FA, strain FA-32X-14, EF-G H457Y) | MIC ([2]; read-out: MIC for FA, strain FA-32X-15, EF-G H457Y) | MIC ([2]; read-out: MIC for FA, strain FA-32X-19, EF-G H457Y) | MIC ([2]; read-out: MIC for FA, strain FA-32X-20, EF-G H457Y) | MIC [3, 9]
8 µg/mL: MIC ([2]; read-out: MIC for FA, strain FA-32X-2, EF-G T436I) | MIC [3, 5] | MIC [3, 6] | MIC [3, 7] | MIC [3, 11] | MIC (S. aureus ATCC BAA-1721)
82 ± 0.8%^: Metabolic Stability in Mouse Liver Microsomes (percent remaining) ([1]; male, CD-1, mouse, microsomes, 3 h, 50 μM, pH 7.4)
4 µg/mL: MIC ([4]; E. faecium AR0572 (CDC), read-out: MIC) | MIC ([4]; E. faecium AR0576 (CDC), read-out: MIC)
no cross-resistance with vancomycin: Cross-resistance with vancomycin [4]

CC(=O)O[C@H]1C[C@@]2(C)[C@@H](C[C@@H](O)[C@H]3[C@@]4(C)CC[C@@H](O)[C@@H](C)[C@@H]4CC[C@@]32C)/C1=C(\CCC=C1CCCC1)C(=O)O [FA-CP, (Z)-2-((3R,4S,5S,8S,9S,10S,11R,13R,14S,16S)-16-acetoxy-3,11-dihydroxy-4,8,10,14-tetramethylhexadecahydro-17H-cyclopenta[a]phenanthren-17-ylidene)-5-cyclopentylidenepentanoic acid]
512: Fold increase from WT S. aureus of highest MIC ([2]; colonies generated from the same compound at 32× the MIC)
32 µg/mL: MIC ([2]; read-out: MIC for FA-CP, strain FA-CP-32X-1, EF-G H457Y) | MIC ([2]; read-out: MIC for FA-CP, strain FA-CP-32X-4, EF-G H457Y) | MIC ([2]; read-out: MIC for FA-CP, strain FA-CP-32X-9, EF-G H457Y) | MIC ([2]; read-out: MIC for FA-CP, strain FA-CP-32X-10, EF-G D434N) | MIC ([2]; read-out: MIC for FA-CP, strain FA-CP-32X-11, EF-G H457Y) | MIC ([2]; read-out: MIC for FA-CP, strain FA-CP-32X-12, EF-G D434N) | MIC ([2]; read-out: MIC for FA-CP, strain FA-CP-32X-14, EF-G H457Y) | MIC ([2]; read-out: MIC for FA-CP, strain FA-CP-32X-19, EF-G H457Y) | MIC ([2]; read-out: MIC for FA-CP, strain FA-CP-32X-20, EF-G H457Y) | MIC ([3]; Staphylococcus aureus, strain FA-32X-F, EF-G D434N)
8 µg/mL: MIC [3, 8] | MIC (S. aureus ATCC BAA-1721)
2 µg/mL: MIC [3, 5] | MIC [3, 6] | MIC [3, 7] | MIC [3, 11] | MIC (E. faecium ATCC 19434) | MIC ([4]; E. faecium AR0574 (CDC)) | MIC ([4]; E. faecium AR0575 (CDC)) | MIC ([4]; E. faecium AR0578 (CDC))
4 µg/mL: MIC [3, 10] | MIC ([4]; E. faecium AR0572 (CDC)) | MIC ([4]; E. faecium AR0576 (CDC))
64 µg/mL: MIC ([2]; read-out: MIC for FA-CP, strain FA-CP-32X-2, EF-G H457Y) | MIC ([2]; read-out: MIC for FA-CP, strain FA-CP-32X-3, EF-G H457Y) | MIC ([2]; read-out: MIC for FA-CP, strain FA-CP-32X-5, EF-G H457Y) | MIC ([2]; read-out: MIC for FA-CP, strain FA-CP-32X-6, EF-G H457Y) | MIC ([2]; read-out: MIC for FA-CP, strain FA-CP-32X-7, EF-G H457Y) | MIC ([2]; read-out: MIC for FA-CP, strain FA-CP-32X-8, EF-G H457Y) | MIC ([2]; read-out: MIC for FA-CP, strain FA-CP-32X-13, EF-G H457Y) | MIC ([2]; read-out: MIC for FA-CP, strain FA-CP-32X-15, EF-G H457Y) | MIC ([2]; read-out: MIC for FA-CP, strain FA-CP-32X-16, EF-G F88L) | MIC ([2]; read-out: MIC for FA-CP, strain FA-CP-32X-17, EF-G F88L) | MIC ([2]; read-out: MIC for FA-CP, strain FA-CP-32X-18, EF-G H457Y) | MIC [3, 9]
78 ± 4%: Metabolic Stability in Mouse Liver Microsomes (percent remaining) ([1]; 3 h at 37° C., LC-MS/MS, ± SEM of 3 biological replicates)
128 µg/mL: MIC ([3]; Staphylococcus aureus, strain FA-32X-A, EF-G F88L) | MIC ([3]; Staphylococcus aureus, strain FA-32X-C, EF-G H457L) | MIC ([3]; Staphylococcus aureus, strain FA-32X-E, EF-G H457N)
2-8 fold: Fold improvement in activity against FA-resistant strains relative to FA ([3]; eleven FA-resistant S. aureus strains)
1 µg/mL: MIC ([4]; E. faecium AR0579 (CDC))
no cross-resistance with vancomycin: Cross-resistance with vancomycin [4]

From patent US20240109934A1, “ANTIBIOTICS WITH IMPROVED DRUG RESISTANCE PROFILE” (priority 2021, published 2024)
